The values that follow come from patent publication US20170273948A1, “USE OF SIGMA RECEPTOR LIGANDS IN OSTEOARTHRITIS” (LABORATORIOS DEL DR ESTEVE S.A., priority 2014, published 2017).

The test system of experiment [1] is osteoarthritic-induced allodynia (MIA-induced osteoarthritis). The experiment in a line: MIA-induced osteoarthritis in rats: mechanical (tactile) allodynia, paw withdrawal threshold to von Frey filaments. The format is in vivo, rat. Conditions: for progressive amelioration of the basal pain (PRE) found before daily treatments: Example B, i.p. b.i.d., oxycodone 2.5 mg/kg; for progressive amelioration of the basal pain (PRE) found before daily treatments / analgesia (POST): Ex.3 40 mg/kg; for analgesia (POST): day 1, single treatment, i.p., 30 min after treatment, Oxycodone 2.5 mg/kg; for analgesic effect (POST): day 29, repeated daily treatments i.p. b.i.d., Ex. 3 40 mg/kg after four weeks, Oxycodone 2.5 mg/kg after three weeks.

The test system is the same in experiment [2]. The experiment is described as above. The format is in vivo, rat. The settings on record: for progressive amelioration of the basal pain (PRE) found before daily treatments: Example A, three weeks i.p. b.i.d.; for progressive amelioration of the basal pain (PRE) found before daily treatments / analgesia (analgesic effect, POST) / analgesic effect (POST): example 1 60 mg/kg, Tramadol 20 mg/kg; for analgesia (analgesic effect, POST): day 1, single treatment, i.p.; for analgesia (analgesic effect, POST) / analgesic effect (POST): 30 min after treatment; for pain after treatment discontinuation (wash out): versus initial situation; for analgesic effect (POST): day 22, after three weeks of treatment i.p. b.i.d. The method, then:
Male Sprague-Dawley rats (Harlan, San Pietro Nastisone, Udine, Italia), weighing 50-75 g on arrival at the laboratory, were used. Animals were allowed to acclimate for one week in groups of five per cage in a room with constant temperature (21±1° C.) and relative humidity (60%), and free access to food and water ad libitum. Automatic light-on and -off allowed alternate light-dark cycles of 12 h:12 h, with light-on at 7:00 a.m. Procedures were approved by the Committee on Animal Research Ethics of ESTEVE and conformed to the guidelines of the IASP (Zimmermann, 1983). In particular, the duration of the experiments was kept as short as possible and the number of rats used was minimized.
Osteoarthritis in rats was induced by intraarticular (i.a.) injection of monosodium iodoacetate (MIA) in the right knee joint, essentially as described by Dunham et al. (1993). After one week of acclimation, rats were briefly anesthetized with isoflurane (5% in 02 at 600 cc/min; IsoFlo®, Veterinaria ESTEVE, MI, Italy) until lack of response to a toe pinch. Surgical area was swabbed with chlorohexidine and alcohol, then a single injection of MIA (50 μl of a 40 mg/ml solution in 0.9% saline, i.e. equal to 2 mg/injection) was delivered using a 28-gauge needle inserted into the joint space of the knee through the intra-patellar ligament, by a gentle flexion of the knee. Sham animals received, in parallel, an equal volume of 0.9% sterile saline.
The MIA dose to obtain a prolonged, marked decrease in mechanical thresholds to von Frey filaments pressure was selected on the basis of a dose-response experiment (not shown). After recovery, animals were returned to their home cage.
Rats […] to the test conditions beforehand were assigned into wire mesh bottom cylinders (transparent metacrylate, 300 mm high×200 mm diameter) and allowed to acclimatize prior the start of the experiment. Tactile allodynia was assessed by determination of the paw withdrawal threshold (PWT) to von Frey filaments stimulation, starting 1 to 15 grams, on the plantar surface of the hind paw. Each filament was applied 3 s until a withdrawal response occurred. A single response indicated a positive response. PWTs were assessed in both the inflamed (ipsilateral) and non-inflamed (contralateral) hind paw and expressed as grams. Control thresholds in the contralateral paw were established in a similar fashion. Nociceptive thresholds were measured prior to MIA injection (Day 0) then after 2 weeks (Day 14) in order to assess allodynia. Only rats with a significant decrease in the minimal pressure (threshold) to trigger ipsilateral versus contralateral hindpaw withdrawal were included in the pharmacological groups; non-responders (noninjured animals) were considered an exclusion criteria. Each animal was used in only one experiment, after which it was sacrificed by CO2.
OA was induced by MIA injection at day −14 in the intra-patellar ligament of the right hindpaw. Sham animals received, in parallel, 50 μl of sterile saline solution. Two weeks later, allodynic rats were characterized by a marked decrease in the minimal pressure (threshold) to trigger withdrawal of the ipsilateral hindpaw (vs. the contralateral hindpaw) when stimulated by using von Frey monofilaments. From day 1 rats received chronic treatment (i.p, b.i.d.) for three weeks (until day 22) with Example 1 or Tramadol for three weeks, and treatment was then discontinued and mechanical allodynia evaluated after 2 days and 7 days (days 24 and 29, respectively) (wash-out period) (FIG. 1).
Two weeks after MIA injection into the knee, rats suffering from mechanical allodynia received a chronic treatment (3 weeks i.p, b.i.d.) with Example 1 (60 mg/kg, FIG. 2A) or Tramadol (20 mg/kg, FIG. 2B). […]

The next experiment deals with sigma 1 (σ-1) site (Homo sapiens, UniProt Q99720). Conditions: cited from earlier work.
The next experiment has as its target sigma (σ-2) site (Homo sapiens, UniProt Q5BJF2). Conditions: cited from earlier work.
Setting [3] is: listed as example 1, hydrochloride.

Where a name gives a salt, the structure may show the parent alone.

Sequence of sigma 1 (σ-1) site (Q99720 whole entry): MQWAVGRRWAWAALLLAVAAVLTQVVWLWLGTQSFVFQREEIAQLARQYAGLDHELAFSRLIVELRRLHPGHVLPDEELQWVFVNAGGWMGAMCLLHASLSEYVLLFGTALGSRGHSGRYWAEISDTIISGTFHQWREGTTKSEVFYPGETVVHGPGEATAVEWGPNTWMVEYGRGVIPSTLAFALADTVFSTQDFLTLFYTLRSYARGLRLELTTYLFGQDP
Sequence of sigma (σ-2) site (Q5BJF2 whole entry): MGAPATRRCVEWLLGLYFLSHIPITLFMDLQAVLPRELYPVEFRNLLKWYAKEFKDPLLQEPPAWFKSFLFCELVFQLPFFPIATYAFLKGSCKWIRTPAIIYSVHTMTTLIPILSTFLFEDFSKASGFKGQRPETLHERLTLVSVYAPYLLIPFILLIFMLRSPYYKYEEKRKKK

`COc1ccc2c3c1O[C@H]1C(=O)CC[C@@]4(O)[C@@H](C2)N(C)CC[C@]314` [Oxycodone, reference compound]: in experiment [1], the “progressive amelioration of the basal pain (PRE) found before daily treatments” value (“progressive amelioration” below) was “not”, the “analgesia (POST)” value was about 65% and the “analgesic effect (POST)” value is about 15%.

As to `Cc1cc(OCCN2CCOCC2)nn1-c1ccc2ccccc2c1` [Example 1, 4-{2-[5-Methyl-1-(naphthalen-2-yl)-1H-pyrazol-3-yloxy]ethyl}morpholine hydrochloride], in experiment [2], the “progressive amelioration” value is listed as “progressively ameliorates the basal pain”. The entries for the “analgesia (analgesic effect, POST)” value in experiment [2] (hydrochloride) and in experiment [2] (setting [3]) were about 40% and “around 40%”, respectively. Besides, the “pain after treatment discontinuation (wash out)” value is “still reduced” in experiment [2] (day 2 after discontinuation (day 24)) and “went back to the initial situation” in experiment [2] (day 7 after discontinuation (day 29)). Further, the “analgesic effect (POST)” value in experiment [2] (hydrochloride) is reported as 90%; in experiment [2] (setting [3]), “around 90%”. Moreover, the “reduction of basal pain (PRE) found before daily treatments” value in experiment [2] (day 22, before first morning administration, example 1 60 mg/kg i.p. b.i.d.) turned out to be 80%. In addition, the “analgesic tolerance (loss of analgesic efficacy following repeated treatment)” value in experiment [2] (repeated treatment i.p. b.i.d. for three weeks) is on record as “does not induce analgesic tolerance”.

On to `CC(=O)N1CCN(CCOCc2ccn(-c3ccc(F)c(F)c3)n2)CC1` [Example 3, 1-(4-(2-((1-(3,4-difluorophenyl)-1H-pyrazol-3-yl)methoxy)ethyl)piperazin-1-yl)ethanone hydrochloride], for which, in experiment [1], the “progressive amelioration” value is reported as “progressively ameliorates the basal pain”, the “analgesia (POST)” value is “around 5%” and the “analgesic effect (POST)” value was “around 60%”. The “reduction of basal pain (PRE) found before daily treatments” value in experiment [1] (day 30, Ex.3 40 mg/kg i.p. b.i.d.) came to 65%.

Take SKF 10047: the “affinity for the sigma 1 (σ-1) site” value on sigma 1 (σ-1) site was “nanomolar”. Also, the “affinity for the sigma (σ-2) site” value on sigma (σ-2) site is “micromolar”.

`COc1cccc(C2(O)CCCCC2CN(C)C)c1` (stereo not drawn) [Tramadol, reference compound]: in experiment [2], the “progressive amelioration” value is reported as “not”; the “analgesia (analgesic effect, POST)” value is given as “around 90%”; the “analgesic effect (POST)” value is reported as about 10%.
